The text below walks through data of patent publication US9096565B2, “Inhibitors of histone deacetylase” (MethylGene Inc., priority 2007, dated 2015).

The assay deals with one or more of HDAC-4, HDAC-5, HDAC-6, HDAC-7, HDAC-8, HDAC-9, HDAC-10 and HDAC-11. Nature of the assay: Inhibition of histone deacetylase enzymatic activity (summary statement over isoforms). Format: biochemical. The note with it: Table 3, selected examples; HDAC isoform not given. On the procedure: The following protocol is used to assay the compounds of the invention.
The mixture is pre-incubated for 5 minutes at room temperature. The reaction is started by bringing the temperature to 37° C. and adding 15 μL substrate. Total reaction volume is 50 μL.
A 30 mM stock of Boc-Lys(trifluoroacetyl)-AMC substrate is prepared in DMSO. […] Reaction is started by adding 18 μL Boc-Lys(trifluoroacetyl)-AMC substrate and incubating at 37° C. for 20-30 minutes. The reaction is stopped by adding 50 μL trypsin (1 mg/mL) and a known HDAC inhibitor.

As usually defined, the IC50 is the concentration needed to halve the response being measured. A low value points to greater potency. `O=C(NO)C(c1ccccc1)c1cccc(OCCc2ccccc2)c1` (stereo not drawn) [Compound 2-7, N-hydroxy-2-(3-phenethoxyphenyl)-2-phenylacetamide] displayed an IC50 of 1 to 15 µM.

`O=C(NO)C(c1ccccc1)c1cccc(OCc2ccc(F)cc2)c1` (stereo not drawn) [Compound 2-8, 2-(3-(4-fluorobenzyloxy)phenyl)-N-hydroxy-2-phenylacetamide] returned a 50% inhibitory concentration (IC50) of under 1 µM.

Turning to `CCCCOc1ccc(C(C(=O)NO)c2ccccc2)cc1` (stereo not drawn) [Compound 2-10, 2-(4-butoxyphenyl)-N-hydroxy-2-phenylacetamide], the IC50 lay in the range of 1 to 15 µM.

The compound `O=C(NO)C(c1ccccc1)c1ccc(OCC(=O)N2CCOCC2)cc1` (stereo not drawn) [Compound 2-11, N-hydroxy-2-(4-(2-morpholino-2-oxoethoxy)phenyl)-2-phenylacetamide] showed an IC50 of under 1 µM.

Compound `O=C(NO)C(c1ccccc1)c1ccc(OCCc2ccccc2)cc1` (stereo not drawn) [Compound 2-12, N-hydroxy-2-(4-phenethoxyphenyl)-2-phenylacetamide] had an IC50 of under 1 µM.

Compound `O=C(NO)C(c1ccccc1)c1ccc(OCc2ccc(F)cc2)cc1` (stereo not drawn) [Compound 2-13] displayed an IC50 of under 1 µM.

On to `COc1cccc(COc2ccc(C(C(=O)NO)c3ccccc3)cc2)c1` (stereo not drawn) [Compound 2-14, N-hydroxy-2-(4-(3-methoxybenzyloxy)phenyl)-2-phenylacetamide], for which the IC50 is under 1 µM.

The compound `Cc1ccc(OC(C(=O)NO)c2ccccc2)cc1` (stereo not drawn) [Compound 2-15, N-hydroxy-2-phenyl-2-(p-tolyloxy)acetamide] displayed an IC50 of 1 to 15 µM.

`O=C(NO)C(Oc1ccc2c(c1)CCC2)c1ccccc1` (stereo not drawn) [Compound 2-16, 2-(2,3-dihydro-1H-inden-5-yloxy)-N-hydroxy-2-phenylacetamide]: the 50% inhibitory concentration (IC50) lay within 1 to 15 µM.

In the case of `CC(C)c1ccc(SC(C(=O)NO)c2ccccc2)cc1` (stereo not drawn) [Compound 2-21, N-hydroxy-2-(4-isopropylphenylthio)-2-phenylacetamide], the concentration for half-maximal inhibition (IC50) lay in the range of 1 to 15 µM.

Compound `CCCC(=O)N1CCCN(C(C(=O)NO)c2ccccc2)CC1` (stereo not drawn) [Compound 2-22, 2-(4-butyryl-1,4-diazepan-1-yl)-N-hydroxy-2-phenylacetamide] gave an IC50 of 1 to 15 µM.

In the case of `CCCC(=O)N1CCN(C(C(=O)NO)c2ccccc2)CC1` (stereo not drawn) [Compound 2-23, 2-(4-butyrylpiperazin-1-yl)-N-hydroxy-2-phenylacetamide], the 50% inhibitory concentration (IC50) lay in the range of 1 to 15 µM.

`CC(C)(C)C(=O)N1CCCN(C(C(=O)NO)c2ccccc2)CC1` (stereo not drawn) [Compound 2-24, N-hydroxy-2-phenyl-2-(4-pivaloyl-1,4-diazepan-1-yl)acetamide] showed a concentration for half-maximal inhibition (IC50) of 1 to 15 µM.

With `O=C(NO)C(c1ccccc1)N1CCN(C(=O)c2ccco2)CC1` (stereo not drawn) [Compound 2-27, 2-(4-(furan-2-carbonyl)piperazin-1-yl)-N-hydroxy-2-phenylacetamide], the half-maximal inhibitory concentration (IC50) lay in the range of 1 to 15 µM.

Compound `O=C(NO)C(c1ccccc1)N1CCN(C(=O)Cc2ccccc2)CC1` (stereo not drawn) [Compound 2-28, N-hydroxy-2-phenyl-2-(4-(2-phenylacetyl)piperazin-1-yl)acetamide] yielded an IC50 of 1 to 15 µM.

On to `Cc1cccc(C(=O)N2CCCN(C(C(=O)NO)c3ccccc3)CC2)c1` (stereo not drawn) [Compound 2-29, N-hydroxy-2-(4-(3-methylbenzoyl)-1,4-diazepan-1-yl)-2-phenylacetamide], for which the concentration for half-maximal inhibition (IC50) was 1 to 15 µM.

`CC(C)NC(=O)N1CCCN(C(C(=O)NO)c2ccccc2)CC1` (stereo not drawn) [Compound 2-31, 4-(2-(hydroxyamino)-2-oxo-1-phenylethyl)-N-isopropyl-1,4-diazepane-1-carboxamide] displayed an IC50 of 1 to 15 µM.

`O=C(NO)C(c1ccccc1)N1CCN(C(=O)Nc2cccnc2)CC1` (stereo not drawn) [Compound 2-34, 4-(2-(hydroxyamino)-2-oxo-1-phenylethyl)-N-(pyridin-3-yl)piperazine-1-carboxamide] gave an IC50 of 1 to 15 µM.

`Cc1ccccc1NC(=O)N1CCN(C(C(=O)NO)c2ccccc2)CC1` (stereo not drawn) [Compound 2-36, 4-(2-(hydroxyamino)-2-oxo-1-phenylethyl)-N-o-tolylpiperazine-1-carboxamide] came in with a half-inhibitory concentration (IC50) of 1 to 15 µM.

In turn, `COc1cccc(NC(=O)N2CCCN(C(C(=O)NO)c3ccccc3)CC2)c1` (stereo not drawn) [Compound 2-37, 4-(2-(hydroxyamino)-2-oxo-1-phenylethyl)-N-(3-methoxyphenyl)-1,4-diazepane-1-carboxamide] registered an IC50 of 1 to 15 µM.

Regarding `Cn1cnc(S(=O)(=O)N2CCN(C(C(=O)NO)c3ccccc3)CC2)c1` (stereo not drawn) [Compound 2-38, N-hydroxy-2-(4-(1-methyl-1H-imidazol-4-ylsulfonyl)piperazin-1-yl)-2-phenylacetamide], the 50% inhibitory concentration (IC50) is under 1 µM.

Turning to `Cn1cnc(S(=O)(=O)N2CCCN(C(C(=O)NO)c3ccccc3)CC2)c1` (stereo not drawn) [Compound 2-39, N-hydroxy-2-(4-(1-methyl-1H-imidazol-4-ylsulfonyl)-1,4-diazepan-1-yl)-2-phenylacetamide], the IC50 is 1 to 15 µM.

On to `O=C(NO)C(c1ccccc1)N1CCN(Cc2cccnc2)CC1` (stereo not drawn) [Compound 2-40, N-hydroxy-2-phenyl-2-(4-(pyridin-3-ylmethyl)piperazin-1-yl)acetamide], for which the IC50 lay in the range of 1 to 15 µM.

Turning to `O=C(NO)C(c1ccccc1)N1CCC2(CC1)OCCO2` (stereo not drawn) [Compound 2-41, N-hydroxy-2-phenyl-2-(1,4-dioxa-8-azaspiro[4.5]decan-8-yl)acetamide], the IC50 is 1 to 15 µM.

As for `O=C(NO)C(c1ccccc1)N1CCC(N2CCOCC2)CC1` (stereo not drawn) [Compound 2-42, N-hydroxy-2-(4-morpholinopiperidin-1-yl)-2-phenylacetamide], the IC50 lay in the range of 1 to 15 µM.

`O=C(NO)C(c1ccccc1)N1CCC(c2nc(-c3cccnc3)no2)CC1` (stereo not drawn) [Compound 2-43, N-hydroxy-2-phenyl-2-(4-(3-(pyridin-3-yl)-1,2,4-oxadiazol-5-yl)piperidin-1-yl)acetamide] gave an IC50 of under 1 µM.

`O=C(NO)C(c1ccccc1)N1CCC(c2nc(-c3ccc4c(c3)OCO4)no2)CC1` (stereo not drawn) [Compound 2-44, 2-(4-(3-(benzo[d][1,3]dioxol-5-yl)-1,2,4-oxadiazol-5-yl)piperidin-1-yl)-N-hydroxy-2-phenylacetamide]: the 50% inhibitory concentration (IC50) was under 1 µM.

`O=C(NO)C(Sc1ccncc1)c1ccccc1` (stereo not drawn) [Compound 2-45, N-hydroxy-2-phenyl-2-(pyridin-4-ylthio)acetamide] gave a half-inhibitory concentration (IC50) of 1 to 15 µM.

`Cc1occc1SC(C(=O)NO)c1ccccc1` (stereo not drawn) [Compound 2-46, N-hydroxy-2-(2-methylfuran-3-ylthio)-2-phenylacetamide] registered a concentration for half-maximal inhibition (IC50) of 1 to 15 µM.

`O=C(NO)C(Sc1ccc(C(F)(F)F)cn1)c1ccccc1` (stereo not drawn) [Compound 2-47, N-hydroxy-2-phenyl-2-(5-(trifluoromethyl)pyridin-2-ylthio)acetamide] registered a 50% inhibitory concentration (IC50) of 1 to 15 µM.

The compound `O=C(NO)C(Sc1nccc(-c2cccs2)n1)c1ccccc1` (stereo not drawn) [Compound 2-48, N-hydroxy-2-phenyl-2-(4-(thiophen-2-yl)pyrimidin-2-ylthio)acetamide] displayed a concentration for half-maximal inhibition (IC50) of 1 to 15 µM.

The compound `O=C(NO)C(Sc1ccnc2cc(C(F)(F)F)ccc12)c1ccccc1` (stereo not drawn) [Compound 2-49, N-hydroxy-2-phenyl-2-(7-(trifluoromethyl)quinolin-4-ylthio)acetamide] showed an IC50 of under 1 µM.

In turn, `O=C(NO)C(c1ccccc1)c1cccc(NCc2ccc(F)cc2)c1` (stereo not drawn) [Compound 2-50, 2-(3-(4-fluorobenzylamino)phenyl)-N-hydroxy-2-phenylacetamide] showed an IC50 of under 1 µM.
